# Species on record: Rattus norvegicus
# Test: DrugMatrix - Regimen: Daily Repeat
# Assay type: toxicity, organism-based, Sprague-Dawley
# Design: regimen Daily Repeat, gender Male, age 6-8 weeks
# Conditions: in vivo, po, route oral GAVAGE, […]; for ABSOLUTE BASOPHIL / ABSOLUTE EOSINOPHIL / ABSOLUTE LYMPHOCYTE / ABSOLUTE MONOCYTE / ABSOLUTE SEGMENTED NEUTROPHIL / BASOPHIL / EOSINOPHIL / ERYTHROCYTE COUNT / HEMATOCRIT / HEMOGLOBIN / LEUKOCYTE COUNT / LYMPHOCYTE / MEAN CORPUSCULAR HEMOGLOBIN / MEAN CORPUSCULAR HEMOGLOBIN CONCENTRATION / MEAN CORPUSCULAR VOLUME / MONOCYTE / NEUTROPHIL / NUCLEATED RED BLOOD CELLS / PLATELET COUNT: tissue Blood; for ALANINE AMINOTRANSFERASE / ALBUMIN / ALKALINE PHOSPHATASE / ASPARTATE AMINOTRANSFERASE / BLOOD UREA NITROGEN / CARBON DIOXIDE / CHLORIDE / CHOLESTEROL / CREATINE PHOSPHOKINASE / CREATININE / GLUCOSE / LACTATE DEHYDROGENASE / LIPASE / PHOSPHORUS / POTASSIUM / SODIUM / TOTAL BILIRUBIN / TOTAL PROTEIN / URIC ACID: tissue Plasma
# [1] = 0 mg/kg, 72 h, dose level Control, time 3 day
# [2] = 0 mg/kg, 120 h, dose level Control, time 5 day
# [3] = 280 mg/kg, 72 h, dose level High, time 3 day
compound,measurement,setting,value
CC/C(=C(/CC)c1ccc(O)cc1)c1ccc(O)cc1 [DIETHYLSTILBESTROL],ABSOLUTE BASOPHIL,[1],0 CELLS/uL
same,ABSOLUTE EOSINOPHIL,[1],14 CELLS/uL
same,ABSOLUTE LYMPHOCYTE,[1],11144.67 CELLS/uL
same,ABSOLUTE MONOCYTE,[1],22.5 CELLS/uL
same,ABSOLUTE SEGMENTED NEUTROPHIL,[1],535.5 CELLS/uL
same,BASOPHIL,[1],0%
same,EOSINOPHIL,[1],0.17%
same,ERYTHROCYTE COUNT,[1],5.08 x10E6/uL
same,HEMATOCRIT,[1],32.32%
same,HEMOGLOBIN,[1],12.87 G/DL
same,LEUKOCYTE COUNT,[1],11.72 x10E3/uL
same,LYMPHOCYTE,[1],94.67%
same,MEAN CORPUSCULAR HEMOGLOBIN,[1],25.37 pg
same,MEAN CORPUSCULAR HEMOGLOBIN CONCENTRATION,[1],39.85 G/DL
same,MEAN CORPUSCULAR VOLUME,[1],63.58 fL
same,MONOCYTE,[1],0.17%
same,NEUTROPHIL,[1],5%
same,NUCLEATED RED BLOOD CELLS,[1],0 /100WBC
same,PLATELET COUNT,[1],1084 x10E3/uL
same,ALANINE AMINOTRANSFERASE,[1],67.5 u/L
same,ALBUMIN,[1],4.02 G/DL
same,ALKALINE PHOSPHATASE,[1],374.17 u/L
same,ASPARTATE AMINOTRANSFERASE,[1],83.5 u/L
same,BLOOD UREA NITROGEN,[1],14.5 mg/dL
same,CARBON DIOXIDE,[1],30 mmol/L
same,CHLORIDE,[1],100.5 MEQ/L
same,CHOLESTEROL,[1],71.33 mg/dL
same,CREATINE PHOSPHOKINASE,[1],268.33 u/L
same,CREATININE,[1],0.16 mg/dL
same,GLUCOSE,[1],170.5 mg/dL
same,LACTATE DEHYDROGENASE,[1],81.17 u/L
same,LIPASE,[1],16.67 u/L
same,PHOSPHORUS,[1],10.07 mg/dL
same,POTASSIUM,[1],5.03 MEQ/L
same,SODIUM,[1],142.92 MEQ/L
same,TOTAL BILIRUBIN,[1],0.17 mg/dL
same,TOTAL PROTEIN,[1],5.63 G/DL
same,URIC ACID,[1],0.5 mg/dL
same,ABSOLUTE BASOPHIL,[2],0 CELLS/uL
same,ABSOLUTE EOSINOPHIL,[2],37.5 CELLS/uL
same,ABSOLUTE LYMPHOCYTE,[2],8049.5 CELLS/uL
same,ABSOLUTE MONOCYTE,[2],82.83 CELLS/uL
same,ABSOLUTE SEGMENTED NEUTROPHIL,[2],646.83 CELLS/uL
same,BASOPHIL,[2],0%
same,EOSINOPHIL,[2],0.5%
same,ERYTHROCYTE COUNT,[2],5.36 x10E6/uL
same,HEMATOCRIT,[2],33.9%
same,HEMOGLOBIN,[2],13.02 G/DL
same,LEUKOCYTE COUNT,[2],8.82 x10E3/uL
same,LYMPHOCYTE,[2],90.17%
same,MEAN CORPUSCULAR HEMOGLOBIN,[2],24.32 pg
same,MEAN CORPUSCULAR HEMOGLOBIN CONCENTRATION,[2],38.42 G/DL
same,MEAN CORPUSCULAR VOLUME,[2],63.32 fL
same,MONOCYTE,[2],1.17%
same,NEUTROPHIL,[2],8.17%
same,NUCLEATED RED BLOOD CELLS,[2],0.17 /100WBC
same,PLATELET COUNT,[2],1231.5 x10E3/uL
same,ALANINE AMINOTRANSFERASE,[2],62 u/L
same,ALBUMIN,[2],3.97 G/DL
same,ALKALINE PHOSPHATASE,[2],303.67 u/L
same,ASPARTATE AMINOTRANSFERASE,[2],84.5 u/L
same,BLOOD UREA NITROGEN,[2],14.83 mg/dL
same,CARBON DIOXIDE,[2],31.83 mmol/L
same,CHLORIDE,[2],97 MEQ/L
same,CHOLESTEROL,[2],68.83 mg/dL
same,CREATINE PHOSPHOKINASE,[2],411.33 u/L
same,CREATININE,[2],0.16 mg/dL
same,GLUCOSE,[2],170.17 mg/dL
same,LACTATE DEHYDROGENASE,[2],88.5 u/L
same,LIPASE,[2],9.5 u/L
same,PHOSPHORUS,[2],9.98 mg/dL
same,POTASSIUM,[2],5.72 MEQ/L
same,SODIUM,[2],141.62 MEQ/L
same,TOTAL BILIRUBIN,[2],0.1 mg/dL
same,TOTAL PROTEIN,[2],5.67 G/DL
same,URIC ACID,[2],0.52 mg/dL
same,ABSOLUTE BASOPHIL,[3],0 CELLS/uL
same,ABSOLUTE EOSINOPHIL,[3],42 CELLS/uL
same,ABSOLUTE LYMPHOCYTE,[3],6341.67 CELLS/uL
same,ABSOLUTE MONOCYTE,[3],46.67 CELLS/uL
same,ABSOLUTE SEGMENTED NEUTROPHIL,[3],836.33 CELLS/uL
same,BASOPHIL,[3],0%
same,EOSINOPHIL,[3],0.67%
same,ERYTHROCYTE COUNT,[3],5.06 x10E6/uL
same,HEMATOCRIT,[3],31.5%
same,HEMOGLOBIN,[3],12.2 G/DL
same,LEUKOCYTE COUNT,[3],7.27 x10E3/uL
same,LYMPHOCYTE,[3],87%
same,MEAN CORPUSCULAR HEMOGLOBIN,[3],24.13 pg
same,MEAN CORPUSCULAR HEMOGLOBIN CONCENTRATION,[3],38.77 G/DL
same,MEAN CORPUSCULAR VOLUME,[3],62.27 fL
same,MONOCYTE,[3],0.67%
same,NEUTROPHIL,[3],11.67%
same,NUCLEATED RED BLOOD CELLS,[3],0 /100WBC
same,PLATELET COUNT,[3],1040.67 x10E3/uL
same,ALANINE AMINOTRANSFERASE,[3],64 u/L
same,ALBUMIN,[3],3.57 G/DL
same,ALKALINE PHOSPHATASE,[3],625.67 u/L
same,ASPARTATE AMINOTRANSFERASE,[3],73 u/L
same,BLOOD UREA NITROGEN,[3],16 mg/dL
same,CARBON DIOXIDE,[3],23 mmol/L
same,CHLORIDE,[3],107.33 MEQ/L
same,CHOLESTEROL,[3],31.33 mg/dL
same,CREATINE PHOSPHOKINASE,[3],341 u/L
same,CREATININE,[3],0.17 mg/dL
same,GLUCOSE,[3],156.67 mg/dL
same,LACTATE DEHYDROGENASE,[3],103.33 u/L
same,LIPASE,[3],8 u/L
same,PHOSPHORUS,[3],9 mg/dL
same,POTASSIUM,[3],5.01 MEQ/L
same,SODIUM,[3],147.7 MEQ/L
same,TOTAL BILIRUBIN,[3],0.27 mg/dL
same,TOTAL PROTEIN,[3],5.5 G/DL
same,URIC ACID,[3],0.53 mg/dL

# From ChEMBL document CHEMBL3885881, “DrugMatrix”
